One assay relates to AhR-RORγt complex. Put plainly: Proximity ligation assay (PLA) in peripheral blood T cells of SLE and RA patients. The class given is cell-based, human. The settings on record: 5 μM for 30 min. The procedure:
(A) Luciferase activity of NF-κB-driven reporter assays in stable GLK-transfected CHO-K1 cells that were treated with or without the GLK inhibitor C1 (verteporfin) under the indicated concentration. The fold changes are presented relative to the value of vector control. (B) Recombinant proteins of GLK kinase domain plus recombinant proteins of GST-tagged kinase-dead PKCθ (K409W) were subjected to in vitro kinase assays in the presence or absence of the GLK inhibitor C1 (verteporfin). Means±SD of are shown. *, P value<0.05; **, P value<0.01 (two-tailed Student's t-test). (C) The AhR-RORγt complex was inhibited by the GLK inhibitor. […] (D) Quantification of the PLA signals of (C). […]
PLA assays were performed using the DUOLINK® In Situ Red Starter kit (Sigma) according to the manufacturer's instructions. […] After ligation and amplification reactions, the PLA signals from each pair of PLA probes in close proximity (<40 nm) were visualized as individual red dots by a fluorescence microscope (Leica DM2500) or a confocal microscope (Leica TCS SP5II). […]
T cells of Lck-GLK transgenic mice, GLK-overexpressing T cells, activated T cells or AhR+RORγt+IKKβ-overexpressing cells were used. […] After ligation and amplification reactions, the PLA signals from each pair of PLA probes in close proximity ([…]) were visualized as individual red dots by a fluorescence or a confocal microscope. […]

Another assay concerns the target T1, GLK dimers (Homo sapiens, UniProt Q8IVH8).
T1 construct: expressed in transfected cells; host or cells: HEK293T
The experiment in a line: Co-immunoprecipitation of Flag-tagged GLK and GFP-fusion GLK in HEK293T cells. The settings on record: HEK293T co-IP. The class given is cell-based. From the text: (A) The molecular docking of GLK kinase domain structure with C1 (verteporfin). A three-dimensional structure model depicts the binding of C1 to the predicted GLK kinase domain containing phosphorylated Ser-170. The putative binding affinity was −7.4 kcal/mol. (B) The molecular docking of GLK kinase domain structure with C2 (alexidine dihydrochloride). A three-dimensional structure model depicts the binding of C2 to the predicted GLK kinase domain containing phosphorylated Ser-170. The putative binding affinity was −7.0 kcal/mol. (C) Co-immunoprecipitation (co-IP) of Flag-tagged GLK and GFP-fusion GLK using lysates of HEK293T cells co-transfected with Flag-GLK and GFP-GLK plasmids. Cells were treated with C1 (verteporfin) or C2 (alexidine dihydrochloride). (D) Administration of the GLK inhibitor C1 (0.556 nmole/g) or C2 (0.085 nmole/g) every 3 days for 30 days in the LLC/luc metastatic lung cancer mouse model. (E) The luciferase activity in mice treated with C1 (verteporfin), C2 (alexidine dihydrochloride), or vehicle was detected by IVIS Spectrum. (F) Luminescent intensity of photons emitted from LLC/luc cells in the images in (e) was quantified. (G) Representative immunohistochemistry of H&E in lung tissues from mice treated with C1 (verteporfin), C2, or vehicle. Scale bar, 0.5 cm. […]

In a further assay the test system is CIA in wild-type mice. Put plainly: Collagen-induced arthritis (CIA) induction in wild-type mice. The class given is in vivo, mouse. An excerpt:
(A to C) Effect of the GLK inhibitor C1 (verteporfin) administration (0.556 nmole/g every 3 days for 30 days) on serum IL-17A and autoantibodies in Lck-GLK Tg mice. (B) ELISA of indicated serum cytokines in Lck-GLK Tg mice treated with C1 (verteporfin) or PBS. (C) ELISA of serum autoantibodies in Lck-GLK Tg mice treated with C1 (verteporfin) or PBS. Means±SEM are shown. (D) Experimental autoimmune encephalomyelitis (EAE) induction in wild-type mice treated with PBS, or the GLK inhibitor C1 (verteporfin) and C2. Clinical scores are presented on a scale of 1 to 5 (left panel). ELISA of IL-17A in the sera from MOG-immunized mice at day 16 (right panel). (E) Collagen-induced arthritis (CIA) induction in wild-type mice treated with the GLK inhibitor C1 (verteporfin) or PBS. Clinical scores are presented on a scale of 1 to 16 (left panel). ELISA of IL-17A in the sera from collagen-immunized mice at day 28. Means±SEM are shown. *, P value<0.05; **, P value<0.01; ***, P value<0.001 (two-tailed Student's […]). C1 denotes verteporfin; C2 denotes alexidine dihydrochloride.
Moreover, overproduction of autoantibodies in Lck-GLK Tg mice were also abolished by C1 (verteporfin) treatment (FIG. 10C). […] To further verify that the GLK inhibitors also works in IL-17A-mediated animal models, we challenged wild-type mice with C1 (verteporfin) or C2 (alexidine dihydrochloride) during EAE and CIA induction.

T1 sequence (Q8IVH8 whole entry): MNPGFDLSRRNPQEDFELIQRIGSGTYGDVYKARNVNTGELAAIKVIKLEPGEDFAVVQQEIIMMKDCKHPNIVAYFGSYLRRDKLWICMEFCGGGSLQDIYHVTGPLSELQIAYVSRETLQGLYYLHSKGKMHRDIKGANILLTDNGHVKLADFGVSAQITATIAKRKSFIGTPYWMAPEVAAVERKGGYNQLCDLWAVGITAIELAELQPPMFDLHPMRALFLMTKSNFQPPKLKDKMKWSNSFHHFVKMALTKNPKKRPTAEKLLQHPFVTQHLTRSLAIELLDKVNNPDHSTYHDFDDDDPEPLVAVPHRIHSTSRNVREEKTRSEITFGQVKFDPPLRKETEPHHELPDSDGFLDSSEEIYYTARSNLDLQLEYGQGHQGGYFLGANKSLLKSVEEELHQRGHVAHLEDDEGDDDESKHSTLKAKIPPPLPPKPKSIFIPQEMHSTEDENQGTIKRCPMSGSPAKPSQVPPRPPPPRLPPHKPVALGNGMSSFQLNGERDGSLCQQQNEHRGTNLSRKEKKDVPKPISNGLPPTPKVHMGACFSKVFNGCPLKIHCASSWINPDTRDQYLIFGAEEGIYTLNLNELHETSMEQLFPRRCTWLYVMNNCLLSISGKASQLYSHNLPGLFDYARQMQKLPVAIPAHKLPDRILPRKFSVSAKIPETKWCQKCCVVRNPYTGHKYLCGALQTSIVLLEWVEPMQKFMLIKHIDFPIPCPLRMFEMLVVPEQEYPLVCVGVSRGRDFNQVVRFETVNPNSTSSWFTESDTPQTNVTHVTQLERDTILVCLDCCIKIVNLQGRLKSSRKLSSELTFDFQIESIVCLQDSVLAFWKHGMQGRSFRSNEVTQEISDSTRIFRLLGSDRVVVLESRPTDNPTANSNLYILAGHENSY

For the compound `C=Cc1c(C)c2cc3nc(cc4[nH]c(cc5nc(cc1[nH]2)C(C)=C5CCC(=O)O)c(CCC(=O)OC)c4C)[C@@]1(C)C3=CC=C(C(=O)OC)[C@H]1C(=O)OC` [C1, verteporfin], in the assay on AhR-RORγt complex, the “AhR-RORγt complex in T cells from SLE and RA patients” value is on record as “blocked”; the “PLA signals (quantification) of AhR with RORγt or phospho-RORγt (S489)” value was “inhibited”. Besides, on GLK dimers, the “dimerization of Flag-tagged GLK protein and GFP-GLK fusion protein” value is reported as “blocked”. In the assay on CIA in wild-type mice (day 28), the “serum IL-17A levels in CIA” value is on record as “inhibited”. In addition, the “disease severity (clinical score) in CIA” value in the assay on CIA in wild-type mice (mouse, in vivo) was “inhibited”.

The record behind these values is patent US11360080B2, “AhR-ROR-γt complex as a biomarker and therapeutic target for autoimmune disease and IL-17A-associated disease” (NATIONAL HEALTH RESEARCH INSTITUTES, priority 2018, dated 2022).
